Assay results: patent US5070210A, “Novel ketenimines as intermediates for insecticides” (ICI Americas Inc., priority 1990, dated 1991)

What was measured:
Type in all cases: in vivo
[1] = tested on: Aster Leafhopper [Macrosteles fascifrens (Stal)]; assay: Aster leafhopper insecticidal test; conditions: adults/nymphs, percent in solution; 48 hours
Procedure, shortened: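 Three ~10 cm oat seedlings per cup were dipped 2-3 seconds in 50-50 acetone-water compound solutions, dried, and caged with ten adult/nymph leafhoppers. Mortality was counted after 48 hours at concentrations from 0.05% downward. LC50, as percent compound in solution, came from dosage-mortality curves.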

[2] = tested on: Tobacco Budworm [Heliothis virescens (Fabricius)] larvae; assay: Tobacco budworm contact test; conditions: second-instar larvae, percent in solution, 5 days
Procedure, shortened: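 Cotton cotyledons dipped 2–3 s in compound in 50-50 acetone-water, dried, then infested with 5 second-instar larvae and held 5 days at high humidity. Mortality scored; LC50 from dosage-mortality curves, expressed as percent compound in solution, concentrations from 0.1% downward.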

[3] = tested on: Rice water weevil [Lissorhoptrus oryzophilus (Kuschel)]; assay: Rice water weevil insecticidal test; conditions: topical, μg per weevil; 48 hours
Description: The compounds in Tables 1 and 2 above were tested for insecticidal activity using the following testing procedures. LC50 values, based on the results of these tests and calculated according to dosage-mortality curves, are expressed in Table 3.
Rice water weevil [Lissorhoptrus oryzophilus (Kuschel)]:
Test compounds were diluted in acetone. Droplets (1 μl) of test solutions were applied to the ventral abdomens of ten female adult weevils. The treated weevils were placed in containers with wet cotton balls and rice foliage. The containers were covered and kept at a temperature of about 25° C. Mortality was recorded after 48 hours. Test concentrations ranged from […] or 2.5 μg per weevil down to that at which 50% mortality occurred. The LC50 values are expressed below in Table 3 under the heading "RWW" in terms of μg of test compound per weevil.

[4] = tested on: Maize weevil [Sitophilus Zeamais (Motschulsky)]; assay: Maize weevil insecticidal test; conditions: adult weevils, percent in solution; 48 hours
Procedure, shortened: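 LC50, in percent of compound in solution, was derived from dosage-mortality curves after 48 h at about 25 °C. Ten adult weevils per container fed on four corn seeds briefly immersed in acetone:water (50:50) solutions of up to 0.01% and dried.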

[5] = tested on: Cabbage Looper [Trichoplusia ni (Hubner)]; assay: Cabbage looper insecticidal test; conditions: second-instar larvae, percent in solution; 3-5 days
Procedure, shortened: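 Squash cotyledons dipped 2-3 s in compound in 50-50 acetone-water, dried, then infested with 5 second-instar larvae and held at high humidity. Mortality scored after 3-5 days at concentrations from 0.1% downward. LC50 from dosage-mortality curves, expressed as percent compound in solution.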

[6] = tested on: Housefly [Musca domestica]; assay: Housefly insecticidal test; conditions: μg per 25 female flies; mortality after 48 hours
Procedure, shortened: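 Dose range started at 100 μg per 25 female flies and went downward. Insects (1-2 days old) contacted a dried acetone/peanut-oil deposit in dishes; LC50 values come from dosage-mortality curves at 48 h.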

[7] = tested on: Tobacco Budworm [Heliothis virescens (Fabricius)] eggs; assay: Tobacco budworm egg test; conditions: 2-day old eggs, percent in solution
Procedure, shortened: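 Paper-towel patches of 2-day-old eggs dipped in acetone solutions of compound (0.1% downward), held on larval rearing medium at 78° F. Mortality scored once all control eggs had hatched and larvae were feeding; LC50 from dosage-mortality curves, expressed as percent compound in solution.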

[8] = tested on: Beet Armyworm (Spodoptera exigua); assay: Beet armyworm insecticidal test; conditions: second-instar larvae, percent in solution; five days
Procedure, shortened: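 Sugar beet leaves dipped 2–3 s in compound diluted in 50:50 acetone-water, dried, then infested with five second-instar larvae in humid petri dishes. Mortality scored at 5 days; concentrations from 0.1% downward. LC50 from dosage-mortality curves, expressed as percent compound in solution.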

Structure (SMILES): CC(C)C(=Nc1ccc(F)c(Br)c1)OCc1ccc(F)c(Oc2ccc(Cl)cc2)c1 [Compound 298]
- LC50, LH [1]: 0.0001%
- LC50, TBW, C (TBW-C) [2]: 0.0008%
- LC50, RWW [3]: > 2.5 µg
- LC50, MW [4]: 0.008%
- LC50, CL [5]: 0.0001%
- LC50, HF [6]: 13 µg
- LC50, TBW, E (TBW-E) [7]: 0.015%

Structure (SMILES): CC(C)C(=Nc1ccc(F)c(C(F)(F)F)c1)OCc1ccc(F)c(Oc2ccccc2)c1 [Compound 300]
- LC50, LH [1]: 0.00002%
- LC50, TBW, C (TBW-C) [2]: 0.001%
- LC50, RWW [3]: 0.075 µg
- LC50, MW [4]: 0.01%
- LC50, CL [5]: 0.0003%
- LC50, HF [6]: 14 µg
- LC50, TBW, E (TBW-E) [7]: 0.024%

Structure (SMILES): CC(C)C(=Nc1ccc(C(F)(F)F)cc1)OCc1ccc(F)c(Oc2ccc(Cl)cc2)c1 [Compound 324]
- LC50, TBW, C (TBW-C) [2]: 0.0004%
- LC50, RWW [3]: 0.06 µg
- LC50, BAW [8]: 0.0024%
- LC50, CL [5]: 0.00014%
- LC50, HF [6]: > 100 µg
- LC50, TBW, E (TBW-E) [7]: 0.025%

Structure (SMILES): CC(C)C(=Nc1ccc(F)cc1)OCc1ccc(F)c(Oc2ccc(Cl)cc2)c1 [Compound 325]
- LC50, TBW, C (TBW-C) [2]: 0.0006%
- LC50, RWW [3]: > 2.5 µg
- LC50, BAW [8]: 0.0025%
- LC50, CL [5]: 0.00012%
- LC50, HF [6]: 5 µg
- LC50, TBW, E (TBW-E) [7]: 0.037%

Structure (SMILES): CC(C)C(=Nc1ccc(F)c(Cl)c1F)OCc1ccc(F)c(Oc2ccc(F)cc2)c1 [Compound 330]
- LC50, LH [1]: < 0.05%
- LC50, TBW, C (TBW-C) [2]: 0.00035%
- LC50, RWW [3]: 0.06 µg
- LC50, MW [4]: 0.001%
- LC50, CL [5]: 0.00012%
- LC50, HF [6]: 5 µg
- LC50, TBW, E (TBW-E) [7]: 0.037%

Structure (SMILES): CC(C)C(=Nc1ccc(F)c(Cl)c1F)OCc1cccc(Oc2ccc(Cl)cc2)c1 [Compound 331]
- LC50, TBW, C (TBW-C) [2]: 0.0004%
- LC50, RWW [3]: > 2.5 µg
- LC50, BAW [8]: 0.002%
- LC50, CL [5]: 0.0002%
- LC50, HF [6]: 20 µg
- LC50, TBW, E (TBW-E) [7]: 0.04%

Structure (SMILES): CC(C)C(=Nc1ccc(F)c(F)c1)OCc1ccc(F)c(Oc2ccccc2)c1 [Compound 336]
- LC50, TBW, C (TBW-C) [2]: 0.0005%
- LC50, RWW [3]: > 2.5 µg
- LC50, MW [4]: 0.0091%
- LC50, BAW [8]: 0.001%
- LC50, CL [5]: 0.00017%
- LC50, HF [6]: 3.6 µg
- LC50, TBW, E (TBW-E) [7]: 0.02%

Structure (SMILES): CC(C)C(=Nc1ccc(C(F)(F)F)cc1)OCc1ccc(F)c(Oc2ccccc2)c1 [Compound 337]
- LC50, TBW, C (TBW-C) [2]: 0.0005%
- LC50, RWW [3]: 0.067 µg
- LC50, MW [4]: 0.0053%
- LC50, BAW [8]: 0.0005%
- LC50, CL [5]: 0.0007%
- LC50, HF [6]: 21 µg
- LC50, TBW, E (TBW-E) [7]: 0.008%

Structure (SMILES): CC(C)C(=Nc1ccc(OC(F)(F)F)cc1)OCc1ccc(F)c(Oc2ccccc2)c1 [Compound 338]
- LC50, TBW, C (TBW-C) [2]: 0.00037%
- LC50, RWW [3]: 0.044 µg
- LC50, MW [4]: 0.0053%
- LC50, CL [5]: 0.000065%
- LC50, HF [6]: 26 µg
- LC50, TBW, E (TBW-E) [7]: 0.01%

Structure (SMILES): CC(C)C(=Nc1ccc(F)c(F)c1F)OCc1ccc(F)c(Oc2ccc(F)cc2)c1 [Compound 349]
- LC50, TBW, C (TBW-C) [2]: 0.0004%
- LC50, RWW [3]: > 2.5 µg
- LC50, MW [4]: > 0.01%
- LC50, BAW [8]: > 0.1%
- LC50, CL [5]: 0.00007%
- LC50, HF [6]: 4.9 µg
- LC50, TBW, E (TBW-E) [7]: > 0.1%

Structure (SMILES): CC(C)C(=Nc1ccc(F)c(Cl)c1F)OCc1ccc(F)c(Oc2ccccc2)c1 [Compound 451]
- LC50, LH [1]: 0.0002%
- LC50, TBW, C (TBW-C) [2]: 0.00025%
- LC50, RWW [3]: 0.065 µg
- LC50, MW [4]: 0.0051%
- LC50, CL [5]: 0.0001%
- LC50, HF [6]: 3.6 µg
- LC50, TBW, E (TBW-E) [7]: > 0.1%

Structure (SMILES): CC(C)C(=Nc1ccc(F)c(Cl)c1)OCc1cccc(Oc2ccc(F)cc2)n1 [Compound 461]
- LC50, RWW [3]: > 2.5 µg
- LC50, MW [4]: 0.0075%
- LC50, BAW [8]: 0.0035%
- LC50, CL [5]: 0.00008%
- LC50, HF [6]: 6 µg
- LC50, TBW, E (TBW-E) [7]: 0.01%
